We go through three molecules from US6410735B1, “1-(4-arylpiperazin-1-y1)-ω-[N-(α,ω-dicarboximido)]-alkanes useful as uro-selective α1-adrenoceptor blockers” (Ranbaxy Laboratories Limited, priority 1997, dated 2002).

Experiment [1] has as its target T1, α1B-adrenoceptor (spleen) (Rattus norvegicus, UniProt P15823).
T1 construct: Aorta, prostate and spleen tissues were isolated from urethane anaesthetized (1.5 gm/kg) male wistar rats; from tissue; host or cells: isolated spleen of male Wistar rats
T1 sequence (P15823 1-515): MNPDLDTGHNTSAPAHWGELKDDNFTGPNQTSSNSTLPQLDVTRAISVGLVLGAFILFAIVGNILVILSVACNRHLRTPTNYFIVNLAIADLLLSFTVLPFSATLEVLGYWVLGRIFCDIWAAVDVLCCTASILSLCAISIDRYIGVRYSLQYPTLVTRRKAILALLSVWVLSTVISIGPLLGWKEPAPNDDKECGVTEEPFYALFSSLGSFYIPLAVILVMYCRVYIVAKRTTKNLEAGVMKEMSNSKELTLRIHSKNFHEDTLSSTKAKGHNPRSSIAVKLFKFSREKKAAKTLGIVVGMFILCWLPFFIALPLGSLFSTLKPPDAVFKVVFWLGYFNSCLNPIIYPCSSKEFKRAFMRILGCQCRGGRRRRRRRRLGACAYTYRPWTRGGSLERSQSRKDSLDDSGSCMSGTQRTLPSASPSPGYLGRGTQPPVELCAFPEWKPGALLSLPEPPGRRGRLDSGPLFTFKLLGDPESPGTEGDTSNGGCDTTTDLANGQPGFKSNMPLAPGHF
Description: In vitro functional assay, phenylephrine-induced contraction of isolated spleen. In kind it is cell-based. As to conditions: rat spleen, phenylephrine; read-out: In Vitro Functional Assay (pKB) α1B (converted). An excerpt: In order to study selectivity of action of the present compounds towards different α-adrenoceptor subtypes, the ability of these compounds to antagonize α1-adrenoceptor agonist induced contractile response of aorta (α1D), prostate (α1A) and spleen (α1B) was studied. Aorta, prostate and spleen tissues were isolated from urethane anaesthetized (1.5 gm/kg) male wistar rats. Isolated tissues were mounted in organ bath containing Krebs Henseleit buffer of the following composition (mM): NaCl 118; KCl 4.7; CaCl2 2.5; MgSO4·H2O 1.2; NaHCO3 25; KH2PO4 1.2; glucose 11.5. Buffer was maintained at 37° C. and aerated with a mixture of 95% O2 and 5% CO2. A resting tension of 2 g (aorta) or 1 g (spleen and prostate) was applied to tissues. Contractile response was monitored using a force displacement transducer and recorded on chart recorders. Tissues were allowed to equilibrate for 2 hours. At the end of equilibration period, concentration response curves to norepinephrine (aorta) and phenylephrine (spleen and prostate) were obtained in the absence and presence of the tested compound (at concentrations of 0.1, 1 and 10 μM). Antagonist affinity was calculated and expressed as PKB values in Table 1.

For the next experiment, the target named is T2, α1B-adrenoceptor (Rattus norvegicus, UniProt P15823).
T2 construct: from tissue; host or cells: rat liver membranes
T2 sequence (P15823 1-515): T1 sequence (P15823 1-515)
Nature of the experiment: Receptor binding assay, [3H]prazosin, rat liver membranes. As to conditions: rat liver membranes, 0.5 nM [3H]prazosin; read-out: RBA (Ki nM) α1B. As for the experimental part: (§1) Receptor binding assays, (RBA's) were performed for native α1-adrenoceptors. Rat submaxillary and rat liver membrane preparations were used to assess the affinity for α1A and α1B subtypes, respectively. Aliquots of membrane protein ([…]) were incubated in a final volume of […] assay buffer (50 mM Tris, 0.5 mM EDTA at pH 7.4) with 0.5 nM [^3H] prazosin for 60 mins at 28 ° C. Reaction was stopped by rapid filtration on Millipore filters. Filters were dried and bound radioactivity counted. Non-specific binding was determined in the presence of 0.3 mM prazosin.

In a further experiment the target is T3, α1A-adrenoceptor (Rattus norvegicus, UniProt P43140).
T3 construct: from tissue; host or cells: rat submaxillary gland membranes
T3 sequence (P43140 1-466): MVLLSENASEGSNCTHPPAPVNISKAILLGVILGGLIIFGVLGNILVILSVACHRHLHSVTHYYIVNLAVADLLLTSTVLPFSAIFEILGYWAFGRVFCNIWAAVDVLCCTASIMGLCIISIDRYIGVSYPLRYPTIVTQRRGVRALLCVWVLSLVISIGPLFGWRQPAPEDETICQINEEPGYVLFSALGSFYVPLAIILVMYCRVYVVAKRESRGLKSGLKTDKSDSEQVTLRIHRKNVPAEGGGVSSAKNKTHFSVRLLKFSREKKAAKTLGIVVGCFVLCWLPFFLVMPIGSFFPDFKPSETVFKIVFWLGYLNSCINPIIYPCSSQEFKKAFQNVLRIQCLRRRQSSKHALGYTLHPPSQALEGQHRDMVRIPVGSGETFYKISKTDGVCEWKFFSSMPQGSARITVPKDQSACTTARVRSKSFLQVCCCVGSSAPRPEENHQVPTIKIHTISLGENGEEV
Description: Receptor binding assay, [3H]prazosin, rat submaxillary membranes. As to conditions: rat submaxillary membranes, 0.5 nM [3H]prazosin; read-out: RBA (Ki nM) α1A. As for the experimental part: as §1

Another experiment has as its target T4, H1 receptor (Cavia porcellus, UniProt P31389).
T4 construct: guinea pig trachea was used to study H1 receptor antagonistic activity; from tissue; host or cells: guinea pig trachea
Nature of the experiment: Receptor selectivity, guinea pig trachea. In kind it is cell-based. Conditions: read-out: pKB H1-Histaminergic (converted). As for the experimental part: Selectivity of action of the present compounds was tested against a range of different receptors, e.g., β1- and α2-adrenergic, muscarinic cholinergic, serotoninergic (5-HT2A), histaminergic (H1), angiotensin II, endothelin (ETA and B,), as well as calcium and potassium channels. Rat aorta was used to study the effect of the compounds on 5-HT2A, ETA, calcium and potassium channels. Angiotensin II receptor antagonistic activity was studied in rabbit aorta. Muscarinic cholinergic receptor and ETB receptor antagonistic activity was studied in rat trachea, while guinea pig trachea was used to study H1 receptor antagonistic activity. Electrically stimulated rat vas deferens was used to investigate the effect of α2-adrenoceptors, while β1-adrenoceptor antagonistic activity was studied using electrically stimulated rat ventricular strips. Results of this selectivity study is shown in (Table 2).

T4 sequence (P31389 whole entry): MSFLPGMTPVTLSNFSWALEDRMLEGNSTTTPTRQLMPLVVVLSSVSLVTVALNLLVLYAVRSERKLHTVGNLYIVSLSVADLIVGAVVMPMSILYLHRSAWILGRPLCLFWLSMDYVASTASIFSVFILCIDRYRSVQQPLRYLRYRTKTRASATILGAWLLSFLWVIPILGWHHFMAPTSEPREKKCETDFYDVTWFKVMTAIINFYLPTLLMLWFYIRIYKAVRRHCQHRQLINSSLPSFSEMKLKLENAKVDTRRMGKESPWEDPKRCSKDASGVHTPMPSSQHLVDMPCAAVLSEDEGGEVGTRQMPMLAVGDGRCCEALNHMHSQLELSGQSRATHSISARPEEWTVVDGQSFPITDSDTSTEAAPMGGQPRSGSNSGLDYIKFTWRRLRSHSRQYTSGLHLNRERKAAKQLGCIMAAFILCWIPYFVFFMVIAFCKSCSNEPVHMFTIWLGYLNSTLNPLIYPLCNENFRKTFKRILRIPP

For `COc1ccccc1N1CCN(CCCCN2C(=O)CCC2=O)CC1` [Compound 9, 1-[4-(2-Methoxyphenyl)piperazin-1-yl]-4-(2,5-dioxopyrrolidin-1-yl)butane], the figures for the Kb (in experiment [1]; at H1 receptor) were 0.01 µM and 3.98 µM, respectively. Besides, the Ki (usually a measure of affinity in units of concentration, obtained from inhibition or displacement) was determined as 35 nM at α1B-adrenoceptor and 1 nM on α1A-adrenoceptor.

In the case of `COc1ccccc1N1CCN(CCCN2C(=O)CCCC2=O)CC1` [Compound 13, 1-[4-(2-Methoxyphenyl)piperazin-1-yl]-3-(2,6-dioxopiperidin-1-yl)propane], the results for the Kb (in experiment [1]; at H1 receptor) were 0.01 µM and 2 µM, respectively. Moreover, the Ki was 168 nM on α1B-adrenoceptor and 3 nM on α1A-adrenoceptor.

Regarding `COc1ccccc1N1CCN(CCCN2C(=O)CCC2=O)CC1` [Compound 2, 1-[4-(2-Methoxyphenyl)piperazin-1-yl]3-(2,5-dioxopyrrolidin-1-yl)propane], the Kb in experiment [1] is 0.0251 µM; on H1 receptor, 5.01 µM. The Ki stood at 244 nM on α1B-adrenoceptor and 19 nM at α1A-adrenoceptor.
